Test results taken from paper PMC11923649, “Novel C-2 Aromatic Heterocycle-Substituted Triterpenoids Inhibit Hedgehog Signaling in GLI1 Overexpression Cancer Cells” (ACS Omega, 2025).
Like-named read-outs stand apart in the source and are kept apart here.

Tests used:
CEM-DNR = assay: MTS cytotoxicity assay, 72 h, CEM-DNR; type: cell-based; settings: Homo sapiens
DU-145 (prostate cancer) = assay: MTS cytotoxicity assay, 72 h, DU-145; type: cell-based, human; settings: Homo sapiens, DU-145, 72 h, Table 1
In short: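 Seed cells; next day add compound (50–0.0975 μmol/L, 2-fold steps); incubate 72 h, 37 °C, 5% CO2; add MTS/PMS, 1–4 h; read A490; fit IC50.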

[1] = test system: Hh signaling (Gli Reporter-NIH3T3, Gli-responsive FLuc); assay: Gli Reporter-NIH3T3 luciferase assay, mSHH or SAG induced; type: cell-based; settings: mean ± SD, n=3
Method: To further validate the effect of new triterpenes on Hh signaling, we used the commercial reporter cell line NIH3T3–Gli reporter, which expresses the firefly luciferase (FLuc) gene under the control of a Gli-responsive element.
Gli Reporter-NIH3T3 (BPS Bioscience) cells were cultured in DMEM medium supplemented with 10% iron-supplemented bovine calf serum and under the selection pressure of Geneticin (500 μg/mL) at 37 °C in an atmosphere of 5% CO2 with 95% humidity. The Gli Reporter-NIH3T3 cell line expresses the firefly luciferase (FLuc) gene under the control of a Gli responsive element stably integrated into NIH3T3 cells. The cell line was validated through response to mSHH stimulation and the effect of commercially available Hh inhibitors (Cyclopamine). The assay was performed in 384-well white opaque microplates. Gli Reporter-NIH3T3 cells were transferred to Opti-MEM medium with a reduced content of 0.5% (v/v) iron-supplemented bovine calf serum, supplemented with a 1% solution of nonessential amino acids, 1 mmol/L sodium pyruvate, and 10 mmol/L HEPES, and seeded on the panel in a volume of 25 μL of cell suspension per well at a concentration of 2.5 × 10^5/mL. The following day, compounds were transferred at the concentration range of 16–0.25 μmol/L (dilution factor 2) and incubated for 2 h. Then, the mSHH ligand at concentrations of 0.25 and 0.5 μg/mL and SAG (a synthetic SMO agonist) at concentrations of 2 and 4 nmol/L were added to the wells. Controls representing DMSO-treated cells were also included at a concentration of 0.1% (v/v). Cells were incubated for another 24–30 h and then kept for 30 min at room temperature, and finally, 25 μL of Britelite plus reagent was added to each well. Plates were placed on a shaker to achieve complete cell lysis, and luminescence was measured after 3 min on an EnVision plate reader.

[2] = test system: NCI-H322 (NSCLC, low GLI1); assay: MTS cytotoxicity assay, 72 h, NCI-H322; type: cell-based, human; settings: compared with A549
From the text: Concerning nonsmall cell lung carcinoma (NSCLC)-derived cell lines, we selected two subtype groups with different expression levels of GLI1, based on a study by Yuan et al.[35] The first group includes cell lines where GLI1 is highly expressed (A549 and NCI-H522), while the second group includes low GLI1-expressing cell lines (HOP-62 and NCI-H322). It has been established that cell lines expressing high levels of GLI1 are relatively resistant to SMO antagonists due to a hyper-activated HH signaling pathway.[35] […] These interesting findings may indicate the potential of 11b to overcome hyper-activated HH signaling in particular NSCLC subsets. […] Lower activity was observed against medulloblastoma (DAYO) and glioblastoma (T98G)-derived cell lines with an IC50 above 20 μmol/L.
The human prostate tumor-derived cell line DU145 was obtained from ATCC (American Type Culture Collection) and cultured in RPMI 1640 (Roswell Park Memorial Institute) medium supplemented with 10% (v/v) fetal bovine serum (FBS). Human prostate tumor-derived LNCaP cells were obtained from ATCC and cultured in RPMI 1640 medium supplemented with 10% FBS. […] Finally, the absorbance at 490 nm was measured using an EnVision multifunctional modular reader (PerkinElmer). The IC50 value was determined using Dotmatics software.

[3] = SAG (SMO agonist) 2 nM after 2 h preincubation, read-out: IC50 SAG stimulation 2 nM
[4] = SAG (SMO agonist) 4 nM after 2 h preincubation, read-out: IC50 SAG stimulation 4 nM
[5] = mSHH 0.25 μg/mL after 2 h preincubation, read-out: IC50 mSHH stimulation 0.25 (μg/mL)
[6] = mSHH 0.5 μg/mL after 2 h preincubation, read-out: IC50 mSHH stimulation 0.5 (μg/mL)

SMILES | IC50 (CEM-DNR; Table 1) | IC50 (CEM-DNR; full Table S1) | IC50 (DU-145 (prostate cancer)) | IC50 [1, 3] | IC50 [1, 4] | IC50 [1, 5] | IC50 [1, 6] | IC50 of NCI-H322 relative to A549 [2]
C=C(C)[C@@H]1CC[C@]2(C(=O)O)CC[C@]3(C)C(CCC4[C@@]5(C)C=C(c6ccco6)C(=O)C(C)(C)C5CC[C@]43C)C12 (stereo partly drawn) [Compound 11a, 2-(Furan-2-yl)-3-oxolupa-1,20(29)-dien-28-oic acid] | 15 µM | 15.3 µM | 7.9 µM | 4.5 ± 0.6 µM | 3.8 ± 0.4 µM | 3.5 ± 0.5 µM | 1.9 ± 0.2 µM | 
C=C(C)[C@@H]1CC[C@]2(C(=O)O)CC[C@]3(C)C(CCC4[C@@]5(C)C=C(c6ccoc6)C(=O)C(C)(C)C5CC[C@]43C)C12 (stereo partly drawn) [Compound 11b, 2-(Furan-3-yl)-3-oxolupa-1,20(29)-dien-28-oic acid] | 22 µM | 21.8 µM | 5.7 µM | 3.5 ± 0.2 µM | 4.1 ± 0.4 µM | 3.2 ± 0.3 µM | 2.4 ± 0.3 µM | almost two times higher
